Assay in all cases: biochemical
Design in all cases: Eurofins recombinant human kinase profiling, remaining kinase activity as % of control, 10 uM ATP
Conditions in all cases: ATP 10 uM; read-out: %Ctrl@10 μM

For assay [1], the target named is T1, CaMKIIα(h) (Homo sapiens, UniProt Q9UQM7).
T1 construct: gene CAMK2A
The procedure, abridged: (§1)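 Activity measured in a commercial panel of 401 recombinant human protein kinases run as a kinase profiling service.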

Assay [2] deals with T2, MLK1(h) (Homo sapiens, UniProt P80192).
T2 construct: gene MAP3K9
The procedure, abridged: as §1

For assay [3], the target named is SIK3(h) (Homo sapiens, UniProt Q9Y2K2). The method, boiled down: as §1
Assay [4] deals with T3, PhKγ2(h) (Homo sapiens, UniProt P15735).
T3 construct: gene PHKG2
The method, boiled down:
as §1

Assay [5] deals with JAK2(h) (Homo sapiens, UniProt O60674). The method, boiled down: as §1
The target in assay [6] is Plk3(h) (Homo sapiens, UniProt Q9H4B4). The method, boiled down:
as §1

For assay [7], the target named is ULK3(h) (Homo sapiens, UniProt Q6PHR2). The procedure, abridged:
as §1

In assay [8] the target is T4, BRK(h) (Homo sapiens, UniProt Q13882).
T4 construct: gene PTK6
The method, boiled down:
as §1

The target in assay [9] is T5, MRCKα(h) (Homo sapiens, UniProt Q5VT25).
T5 construct: gene CDC42BPA
The method, boiled down: as §1

For assay [10], the target named is PAK2(h) (Homo sapiens, UniProt Q13177). The method, boiled down:
as §1

The target in assay [11] is GRK2(h) (Homo sapiens, UniProt P25098). The method, boiled down:
as §1

Assay [12] concerns the target T6, Pim-1(h) (Homo sapiens, UniProt P11309).
T6 construct: gene PIM1
The method, boiled down:
as §1

For assay [13], the target named is CDKL2(h) (Homo sapiens, UniProt Q92772). The procedure, abridged: as §1
Assay [14] addresses T7, Tie2(Y897S)(h) (Homo sapiens, UniProt Q02763, Y897S).
T7 construct: gene TEK
The procedure, abridged:
as §1

For assay [15], the target named is T8, CDK5/p35(h) (Homo sapiens, UniProt Q00535).
T8 construct: p35
The method, boiled down: as §1

In assay [16] the target is T9, Yes(h) (Homo sapiens, UniProt P07947).
T9 construct: gene YES1
The procedure, abridged:
as §1

Assay [17] deals with T10, c-RAF(h) (Homo sapiens, UniProt P04049).
T10 construct: gene RAF1
The method, boiled down: as §1

Assay [18] concerns the target LTK(h) (Homo sapiens, UniProt P29376). The procedure, abridged:
as §1

The target in assay [19] is mTOR/FKBP12(h) (Homo sapiens, UniProt P42345). The procedure, abridged: as §1
The target in assay [20] is NEK2(h) (Homo sapiens, UniProt P51955). The method, boiled down: as §1
In assay [21] the target is TTBK2(h) (Homo sapiens, UniProt Q6IQ55). The method, boiled down:
as §1

Assay [22] deals with T11, Aurora-A(h) (Homo sapiens, UniProt O14965).
T11 construct: gene AURKA
The procedure, abridged: as §1

T10 sequence (P04049 whole entry): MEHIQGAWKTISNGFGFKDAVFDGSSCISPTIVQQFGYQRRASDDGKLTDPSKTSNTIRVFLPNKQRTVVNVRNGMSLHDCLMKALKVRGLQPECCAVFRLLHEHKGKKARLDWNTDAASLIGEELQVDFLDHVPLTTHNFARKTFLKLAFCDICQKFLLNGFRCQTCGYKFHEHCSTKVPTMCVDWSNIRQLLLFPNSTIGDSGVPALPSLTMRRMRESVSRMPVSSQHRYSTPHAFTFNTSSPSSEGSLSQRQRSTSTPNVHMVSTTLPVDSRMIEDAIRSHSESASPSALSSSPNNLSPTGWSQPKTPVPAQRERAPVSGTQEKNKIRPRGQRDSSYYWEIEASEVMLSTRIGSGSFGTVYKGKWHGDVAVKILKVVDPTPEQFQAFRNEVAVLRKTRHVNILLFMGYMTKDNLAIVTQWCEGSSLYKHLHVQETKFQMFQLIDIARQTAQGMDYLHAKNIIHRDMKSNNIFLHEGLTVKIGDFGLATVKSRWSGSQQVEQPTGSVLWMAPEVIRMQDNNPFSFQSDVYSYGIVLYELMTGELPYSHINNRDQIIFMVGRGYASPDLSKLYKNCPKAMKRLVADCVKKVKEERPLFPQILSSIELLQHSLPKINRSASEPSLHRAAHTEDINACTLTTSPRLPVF
T2 sequence (P80192 whole entry): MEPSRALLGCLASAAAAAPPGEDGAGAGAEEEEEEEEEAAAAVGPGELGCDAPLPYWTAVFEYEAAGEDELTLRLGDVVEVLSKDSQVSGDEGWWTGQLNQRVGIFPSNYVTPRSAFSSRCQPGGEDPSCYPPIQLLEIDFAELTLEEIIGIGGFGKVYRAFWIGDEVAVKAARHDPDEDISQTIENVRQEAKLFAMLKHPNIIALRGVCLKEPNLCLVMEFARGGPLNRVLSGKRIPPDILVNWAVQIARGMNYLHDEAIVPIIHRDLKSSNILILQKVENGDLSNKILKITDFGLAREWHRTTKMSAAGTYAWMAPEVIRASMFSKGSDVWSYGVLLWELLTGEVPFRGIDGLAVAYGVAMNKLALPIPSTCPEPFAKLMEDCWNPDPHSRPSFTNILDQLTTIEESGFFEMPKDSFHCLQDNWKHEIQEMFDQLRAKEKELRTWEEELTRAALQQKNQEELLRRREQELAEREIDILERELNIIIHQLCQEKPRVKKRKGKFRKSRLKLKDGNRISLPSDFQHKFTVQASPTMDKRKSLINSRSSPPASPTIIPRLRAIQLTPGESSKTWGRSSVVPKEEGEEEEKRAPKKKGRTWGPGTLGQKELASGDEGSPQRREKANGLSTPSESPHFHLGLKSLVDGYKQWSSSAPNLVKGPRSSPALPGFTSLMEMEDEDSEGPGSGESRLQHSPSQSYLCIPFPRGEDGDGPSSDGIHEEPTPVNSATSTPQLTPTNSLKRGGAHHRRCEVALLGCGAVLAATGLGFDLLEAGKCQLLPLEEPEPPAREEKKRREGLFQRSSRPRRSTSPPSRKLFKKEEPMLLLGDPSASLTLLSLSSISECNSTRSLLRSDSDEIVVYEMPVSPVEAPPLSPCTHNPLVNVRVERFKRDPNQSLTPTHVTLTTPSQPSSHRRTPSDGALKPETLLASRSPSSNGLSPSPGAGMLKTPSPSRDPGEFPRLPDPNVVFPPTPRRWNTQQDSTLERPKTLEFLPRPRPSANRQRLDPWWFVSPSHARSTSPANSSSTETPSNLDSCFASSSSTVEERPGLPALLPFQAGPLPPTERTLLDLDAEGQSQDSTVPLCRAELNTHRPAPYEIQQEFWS
Sequence of CDKL2(h) (Q92772 whole entry): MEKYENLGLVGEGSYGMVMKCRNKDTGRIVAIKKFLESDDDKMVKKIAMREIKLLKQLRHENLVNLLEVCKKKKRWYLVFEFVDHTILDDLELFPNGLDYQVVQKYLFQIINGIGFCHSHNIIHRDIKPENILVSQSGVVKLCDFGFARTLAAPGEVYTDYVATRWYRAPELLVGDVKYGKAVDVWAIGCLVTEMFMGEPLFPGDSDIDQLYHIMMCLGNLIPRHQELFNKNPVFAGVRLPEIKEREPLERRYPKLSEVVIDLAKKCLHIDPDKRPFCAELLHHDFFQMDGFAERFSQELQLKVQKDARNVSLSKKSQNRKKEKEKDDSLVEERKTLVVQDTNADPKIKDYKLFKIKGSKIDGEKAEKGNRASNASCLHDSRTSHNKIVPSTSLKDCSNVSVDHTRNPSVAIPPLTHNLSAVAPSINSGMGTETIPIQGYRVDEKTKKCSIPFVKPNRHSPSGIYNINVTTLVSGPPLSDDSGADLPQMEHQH
T7 sequence (Q02763 whole entry Y897S): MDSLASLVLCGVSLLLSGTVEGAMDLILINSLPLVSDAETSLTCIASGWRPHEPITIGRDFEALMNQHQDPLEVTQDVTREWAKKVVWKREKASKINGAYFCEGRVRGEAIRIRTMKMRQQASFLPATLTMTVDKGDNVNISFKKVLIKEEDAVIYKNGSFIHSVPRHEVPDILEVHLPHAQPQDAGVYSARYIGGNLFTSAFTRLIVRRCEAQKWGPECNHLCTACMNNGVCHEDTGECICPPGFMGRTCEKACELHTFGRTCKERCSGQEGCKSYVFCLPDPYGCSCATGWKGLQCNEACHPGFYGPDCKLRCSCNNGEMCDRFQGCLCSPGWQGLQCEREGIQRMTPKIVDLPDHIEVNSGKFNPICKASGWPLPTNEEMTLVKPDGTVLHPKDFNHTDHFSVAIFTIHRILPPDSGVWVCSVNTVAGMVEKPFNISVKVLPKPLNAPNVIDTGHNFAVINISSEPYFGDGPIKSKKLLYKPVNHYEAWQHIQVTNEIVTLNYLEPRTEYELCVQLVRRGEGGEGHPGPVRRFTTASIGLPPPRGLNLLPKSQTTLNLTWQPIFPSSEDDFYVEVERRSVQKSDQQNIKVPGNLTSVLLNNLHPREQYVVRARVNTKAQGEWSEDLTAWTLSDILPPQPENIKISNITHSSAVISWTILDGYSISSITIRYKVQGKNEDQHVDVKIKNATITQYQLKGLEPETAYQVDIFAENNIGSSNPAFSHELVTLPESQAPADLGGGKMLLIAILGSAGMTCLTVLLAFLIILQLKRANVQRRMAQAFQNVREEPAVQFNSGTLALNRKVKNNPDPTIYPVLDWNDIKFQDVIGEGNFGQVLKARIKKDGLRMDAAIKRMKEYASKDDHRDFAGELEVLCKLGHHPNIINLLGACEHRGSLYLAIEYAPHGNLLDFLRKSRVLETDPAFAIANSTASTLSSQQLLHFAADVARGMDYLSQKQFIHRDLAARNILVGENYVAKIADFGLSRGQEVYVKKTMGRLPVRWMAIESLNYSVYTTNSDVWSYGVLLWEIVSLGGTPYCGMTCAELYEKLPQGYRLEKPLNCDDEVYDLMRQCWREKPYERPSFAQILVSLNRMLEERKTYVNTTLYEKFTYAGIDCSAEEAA
T1 sequence (Q9UQM7 whole entry): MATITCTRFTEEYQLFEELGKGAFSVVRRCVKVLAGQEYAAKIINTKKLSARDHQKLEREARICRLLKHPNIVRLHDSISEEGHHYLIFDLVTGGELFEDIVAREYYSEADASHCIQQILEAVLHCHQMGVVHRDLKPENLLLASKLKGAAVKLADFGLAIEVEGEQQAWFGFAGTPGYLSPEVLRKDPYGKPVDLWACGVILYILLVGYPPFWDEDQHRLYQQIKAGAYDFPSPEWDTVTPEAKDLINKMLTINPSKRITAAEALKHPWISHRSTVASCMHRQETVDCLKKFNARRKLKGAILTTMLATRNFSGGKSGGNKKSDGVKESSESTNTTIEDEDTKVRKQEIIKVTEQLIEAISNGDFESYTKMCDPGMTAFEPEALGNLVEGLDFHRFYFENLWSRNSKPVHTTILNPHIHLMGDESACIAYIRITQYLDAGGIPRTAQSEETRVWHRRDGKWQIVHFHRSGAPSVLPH
Sequence of NEK2(h) (P51955 whole entry): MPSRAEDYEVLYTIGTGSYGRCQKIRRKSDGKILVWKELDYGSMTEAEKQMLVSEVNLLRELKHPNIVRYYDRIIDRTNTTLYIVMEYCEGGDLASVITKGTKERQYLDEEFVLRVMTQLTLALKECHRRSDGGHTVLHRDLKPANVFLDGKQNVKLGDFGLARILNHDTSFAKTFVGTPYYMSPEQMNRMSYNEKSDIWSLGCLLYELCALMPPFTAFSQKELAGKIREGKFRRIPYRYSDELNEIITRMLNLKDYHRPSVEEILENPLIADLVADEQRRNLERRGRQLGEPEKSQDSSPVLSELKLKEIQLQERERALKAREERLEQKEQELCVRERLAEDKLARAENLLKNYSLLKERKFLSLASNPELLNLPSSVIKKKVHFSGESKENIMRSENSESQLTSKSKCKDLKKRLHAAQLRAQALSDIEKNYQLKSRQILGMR
T8 sequence (Q00535 whole entry): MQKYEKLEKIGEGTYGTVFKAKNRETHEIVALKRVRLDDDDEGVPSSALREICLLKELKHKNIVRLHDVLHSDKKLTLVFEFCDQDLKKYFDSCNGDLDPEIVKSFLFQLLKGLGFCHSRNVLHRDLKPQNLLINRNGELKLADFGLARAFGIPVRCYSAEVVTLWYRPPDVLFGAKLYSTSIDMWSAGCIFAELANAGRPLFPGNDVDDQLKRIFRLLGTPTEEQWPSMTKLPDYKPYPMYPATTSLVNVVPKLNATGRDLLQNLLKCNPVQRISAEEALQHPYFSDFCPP
T8 sequence (Q15078 whole entry partner): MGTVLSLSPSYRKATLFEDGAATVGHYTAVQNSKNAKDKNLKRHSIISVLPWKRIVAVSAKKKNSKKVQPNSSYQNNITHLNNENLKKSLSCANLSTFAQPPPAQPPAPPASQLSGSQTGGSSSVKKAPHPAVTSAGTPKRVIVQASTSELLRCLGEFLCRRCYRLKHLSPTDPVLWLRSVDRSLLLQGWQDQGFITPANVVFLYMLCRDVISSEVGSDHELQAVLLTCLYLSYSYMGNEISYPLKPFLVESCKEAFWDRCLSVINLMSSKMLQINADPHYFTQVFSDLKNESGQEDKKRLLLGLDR

As for `C1=C(c2nc(-c3cnn(C4CCNCC4)c3)cn3cc(-c4ccccc4)nc23)CCOC1` [YL-939], the remaining activity at 10 µM in assay [1] stood at 64%; in assay [2], 86%; in assay [3], 84%; in assay [4], 68%; in assay [5] it was 90%; in assay [6], 103%. Further, the remaining activity at 10 µM in assay [7] is 68%; in assay [8], 109%; in [9], 92%; in [10], 90%; in assay [11], 111%; in assay [12], 68%. The remaining activity at 10 µM in assay [13] was determined as 74%; in assay [14] it was 91%; in assay [15] it was 100%; in [16], 90%; in assay [17] it was 76%; in [18], 108%. Besides, the remaining activity at 10 µM was determined as 88% in [19], 99% in [20], 87% in [21] and 111% in [22].

For the origin of these results see publication PMC9719519, “Non-classical ferroptosis inhibition by a small molecule targeting PHB2” (Nature Communications, 2022).
